In the supplement of paper PMC11781733:
Where a name gives a salt, the structure may show the parent alone.

Legend:
Conditions in all cases: exposure time: 15 min to 3 h acute
Dugesia japonica [1] = experiment: speed first 30 s blue light vs vehicle (% change vs vehicle); higher = higher incidence or increase relative to vehicle control
Procedure, shortened: (§1)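 Values are median percent changes in crawling speed of intact, fasted Dugesia japonica, measured in the dark or during blue light by automated tracking and normalised per worm to the plate's vehicle median. Single worms in 200 μL per well of 48-well plates were tested 15 min to 3 h after exposure, with 0.5% DMSO or water as vehicle, and worms that crawled out were excluded.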

Dugesia japonica [2] = experiment: pharynx extrusion incidence (% planarians (vehicle-normalised)); higher = higher incidence or increase relative to vehicle control
Procedure, shortened: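 Pharynx extrusion was scored manually and blind as a body-shape category, and its incidence was normalised to in-plate vehicle controls. Individual intact, fasted Dugesia japonica were kept in 200 μL per well of 48-well plates and tested 15 min to 3 h after exposure in water or 0.5% DMSO vehicle. Negatives were set to 0, and worms that crawled out were excluded.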

Dugesia japonica [3] = experiment: corkscrew incidence (% planarians (vehicle-normalised)); higher = higher incidence or increase relative to vehicle control
Procedure, shortened: (§2)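 Values are the incidence of each body shape or of any abnormal shape, ×100, relative to in-plate vehicle controls, and negatives are set to 0. Fasted D. japonica planarians (5–7 days), one per 200 μL well in sealed 48-well plates, were scored blind by hand within 15 minutes–3 hours of exposure to at least 5 concentrations; worms that crawled out were excluded.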

Dugesia japonica [4] = experiment: resting fraction in dark vs vehicle (difference in fraction x100 vs vehicle); higher = higher incidence or increase relative to vehicle control
Procedure, shortened: (§3)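 Values give the median resting fraction in the dark or under blue light, obtained by automated tracking with the plate's vehicle median subtracted from each worm and the difference multiplied by 100. Intact, fasted Dugesia japonica were placed one per well of a 48-well plate in 200 μL, eight per concentration per plate in technical triplicate. Tracking ran 15 min to 3 h after exposure in 0.5% DMSO or water vehicle, and any worm that crawled out was excluded.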

Dugesia japonica [5] = experiment: resting fraction in blue light vs vehicle (difference in fraction x100 vs vehicle); higher = higher incidence or increase relative to vehicle control
Procedure, shortened: as §3

Dugesia japonica [6] = experiment: contracted body shape incidence (% planarians (vehicle-normalised)); higher = higher incidence or increase relative to vehicle control
Procedure, shortened: as §2

Dugesia japonica [7] = experiment: total locomotor bursts minus vehicle (bursts difference vs vehicle); higher = higher incidence or increase relative to vehicle control
Procedure, shortened: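 Fasted Dugesia japonica planarians, one per well of a sealed 48-well plate in 200 μL solution, were tested 15 min–3 h after exposure to half- or quarter-log concentration series. The vehicle was 0.5% DMSO or water. Total locomotor bursts, an unstimulated behaviour, came from image-based object tracking, with technical triplicates totalling n = 24. Each planarian's value had the plate vehicle-control median subtracted, without ×100 scaling. The value is the median normalised response, and crawled-out worms were excluded.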

Dugesia japonica [8] = experiment: anxiety (time in outer well region) vs vehicle (% change vs vehicle); higher = higher incidence or increase relative to vehicle control
Procedure, shortened: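 Time in the outer portion of each well was tracked by software for individual planarians, excluding any that crawled out, and the median normalized response is given. Worms (D. japonica, fasted 5–7 days) sat one per well in 200 μL in sealed 48-well plates, were exposed to at least 5 concentrations with n = 24 per concentration in technical triplicates, and were screened within 15 minutes–3 hours. Normalization divided each response by, or reduced it by, the plate vehicle median and multiplied the result by 100.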

Dugesia japonica [9] = experiment: any abnormal body shape incidence (% planarians (vehicle-normalised)); higher = higher incidence or increase relative to vehicle control
Procedure, shortened: as §2

Dugesia japonica [10] = experiment: hyperkinesis incidence (% planarians (vehicle-normalised)); higher = higher incidence or increase relative to vehicle control
Procedure, shortened: as §2

Dugesia japonica [11] = experiment: speed in dark vs vehicle (% change vs vehicle); higher = higher incidence or increase relative to vehicle control
Procedure, shortened: as §1

Dugesia japonica [12] = experiment: loss of phototaxis incidence (% planarians (vehicle-normalised)); higher = higher incidence or increase relative to vehicle control
Procedure, shortened: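 The endpoint was loss of phototaxis, scored yes/no by automated object tracking in intact, fasted Dugesia japonica kept singly in wells. Plates had 48 wells holding 200 μL, and worms were tested 15 min to 3 h after exposure in 0.5% DMSO or water vehicle. The incidence rate ×100 was normalised to in-plate vehicle controls, with negatives set to 0 and escaped worms excluded.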

Dugesia japonica [13] = experiment: crawl-out incidence (% planarians); higher = higher incidence or increase relative to vehicle control
Dugesia japonica [14] = experiment: stickiness incidence (% planarians (vehicle-normalised)); higher = higher incidence or increase relative to vehicle control
Procedure, shortened: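 In the Stickiness assay, fasted Dugesia japonica planarians were each placed in one well of a sealed 48-well plate containing 200 μL of solution, with 0.5% DMSO or water as vehicle. Testing took place 15 min–3 h after exposure to half- or quarter-log concentration series. Stickiness was recorded as a binary endpoint, and its incidence was expressed relative to in-plate vehicle incidence after pooling technical triplicates and removing worms that crawled out. Negative values were set to 0 and all values were multiplied by 100.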

Dugesia japonica [15] = experiment: speed second 30 s blue light vs vehicle (% change vs vehicle); higher = higher incidence or increase relative to vehicle control
Procedure, shortened: as §1

Dugesia japonica [16] = experiment: noxious heat displacement strength vs vehicle (% change vs vehicle); higher = higher incidence or increase relative to vehicle control
Procedure, shortened: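 With automated object tracking, the scrunching assay gave displacement strength under noxious heat for intact, fasted Dugesia japonica, each normalised to its plate's vehicle median and summarised as the median percent change. Worms sat singly in 200 μL in 48-well plates and were tested 15 min to 3 h after exposure in 0.5% DMSO or water vehicle; those that crawled out were excluded.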

Dugesia japonica [17] = experiment: C-shape incidence (% planarians (vehicle-normalised)); higher = higher incidence or increase relative to vehicle control
Procedure, shortened: as §2

Dugesia japonica [18] = experiment: loss of heat-induced scrunching incidence (% planarians (vehicle-normalised)); higher = higher incidence or increase relative to vehicle control
Procedure, shortened: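 The incidence of worms lacking a scrunching response to a noxious heat stimulus, normalised to vehicle controls within each plate, is the value listed. It appears ×100 with negatives set to 0. Single D. japonica planarians in 200 μL per well of 48-well plates were exposed to at least 5 concentrations (n = 24 per concentration) and tested within 15 minutes–3 hours, excluding worms that crawled out.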

| SMILES | speed first 30 s blue light (Dugesia japonica [1]) | pharynx extrusion incidence (Dugesia japonica [2]) | corkscrew incidence (Dugesia japonica [3]) | resting fraction in dark (Dugesia japonica [4]) | resting fraction in blue light (Dugesia japonica [5]) | contracted body shape incidence (Dugesia japonica [6]) | total locomotor bursts minus vehicle (Dugesia japonica [7]) | anxiety (Dugesia japonica [8]) | any abnormal body shape incidence (Dugesia japonica [9]) | hyperkinesis incidence (Dugesia japonica [10]) | speed in dark (Dugesia japonica [11]) | loss of phototaxis incidence (Dugesia japonica [12]) | crawl-out incidence (Dugesia japonica [13]) | stickiness incidence (Dugesia japonica [14]) | speed second 30 s blue light (Dugesia japonica [15]) | noxious heat displacement strength (Dugesia japonica [16]) | C-shape incidence (Dugesia japonica [17]) | loss of heat-induced scrunching incidence (Dugesia japonica [18]) |
| --- | --- | --- | --- | --- | --- | --- | --- | --- | --- | --- | --- | --- | --- | --- | --- | --- | --- | --- |
| CCCCNc1c(C(=O)OCC)c(C)nc2c1cnn2CC [tracazolate hydrochloride] (10 µM) | -24.7 | 0 | 0 | 1.52 | 0 | 0 | 4.5 | -12.6 | 0 | 0 | -27.1 | ≤ 0 | 0 | ≤ 0 | -17.8 | -3.78 | 0 | 16.7 |
| CC(NC(C)(C)C)C(=O)c1cccc(Cl)c1 (stereo unspecified) [bupropion] (100 µM) | 9.9 | 0 | 0 | 25.7 | -3.29 | 0 | -1 | 3.91 | 0 | 0 | -35.4 | 4.17 | 0 | 13 | 20.6 | -32.4 | 0 | 12.5 |
| CN1CCN(C2=Nc3cc(Cl)ccc3Nc3ccccc32)CC1 [clozapine] (3.16 µM) | -90.3 | 0 | 4.17 | 74.7 | 69.7 | 8.33 | 26.8 | -27.9 | 20.8 | 20.8 | -74 | 16.7 | 0 | 20.8 | -87.9 | -40.6 | 0 | 33.3 |
| CC(NC(C)(C)C)C(=O)c1cccc(Cl)c1 (stereo unspecified) [bupropion] (31.6 µM) | -59.5 | 0 | 0 | 17.5 | 23.4 | 4.17 | -7.5 | 2.47 | 0 | 0 | -1.56 | 20.8 | 0 | ≤ 0 | -19.4 | -22.3 | 0 | 16.7 |
| CN(C)CCCN1c2ccccc2CCc2ccccc21 [imipramine] (31.6 µM) | -68.6 | 4.17 | 0 | 6.51 | 6.1 | 12.5 | 15.2 | -4.58 | 45.8 | 33.3 | -64 | 20.8 | 0 | 34.8 | -64.4 | -21.9 | 0 | ≤ 0 |
| O=C(O)/C=C\C(=O)O [maleic acid] (200 µM) | -32.5 | 0 | 0 | -12.7 | -5.42 | 0 | -2 | 23.7 | 0 | 0 | -20.4 | ≤ 0 | 0 | 12.5 | -23.8 | -39.3 | 0 | 33.3 |
| CN[C@H]1CC[C@@H](c2ccc(Cl)c(Cl)c2)c2ccccc21 [sertraline hydrochloride] (3.16 µM) | -25.9 | 0 | 0 | 1.05 | 4.62 | 0 | 8 | 15.3 | 4.55 | 4.55 | -20.1 | 18.2 | 8.33 | 4.55 | -31.9 | -5.25 | 0 | ≤ 0 |
| O=C(CCCN1CC=C(n2c(=O)[nH]c3ccccc32)CC1)c1ccc(F)cc1 [droperidol] (31.6 µM) | -94.6 | 0 | 4.17 | 86.7 | 85.4 | 70.8 | 12.2 | -26.3 | 95.8 | 25 | -81.9 | 58.3 | 0 | 12.5 | -94.3 | -34 | 29.2 | 75 |
| Cc1cc2c(s1)Nc1ccccc1N=C2N1CCN(C)CC1 [olanzapine] (100 µM) | -93.9 | 0 | 18.2 | 79.9 | 76 | 27.3 | -2.75 | 18.3 | 77.3 | 45.5 | -67.8 | 7.14 | 41.7 | 27.3 | -91.1 | -50.1 | 13.6 | 68.2 |
| CN1C(=O)CN=C(c2ccccc2)c2cc(Cl)ccc21 [diazepam] (100 µM) | -84.2 | 37.5 | 20.8 | 48.6 | 50.2 | 12.5 | 55 | -36.9 | 100 | 16.7 | -72.2 | 29.2 | 0 | ≤ 0 | -87.6 | -45.6 | 62.5 | 37.5 |
| O=C(CCCN1CCC(O)(c2ccc(Br)cc2)CC1)c1ccc(F)cc1 [bromperidol] (10 µM) | -49.8 | 0 | 42.9 | 50.5 | 38 | 4.76 | 8 | 7.64 | 66.7 | 52.4 | -40.7 | ≤ 0 | 25 | ≤ 0 | -60.1 | -32.1 | 0 | 47.6 |
| CN1C(=O)CN=C(c2ccccc2)c2cc(Cl)ccc21 [diazepam] (10 µM) | 0.43 | 0 | 0 | -5.91 | 0.83 | 0 | -1 | 0.94 | 0 | 0 | 15.9 | 50 | 0 | 21.7 | -16.1 | -17.4 | 0 | 12.5 |
| CN[C@H]1CC[C@@H](c2ccc(Cl)c(Cl)c2)c2ccccc21 [sertraline hydrochloride] (31.6 µM) | -36 | 0 | 0 | -19.3 | 4.64 | 0 | 6.5 | 1.57 | 4.35 | 4.35 | -31.9 | ≤ 0 | 4.17 | 4.35 | -42.3 | 3.64 | 0 | 47.8 |
| CN1CCN(CCCN2c3ccccc3Sc3ccc(Cl)cc32)CC1 [prochloroperazine] (31.6 µM) | -89.8 | 0 | 4.35 | 60.9 | 75.3 | 21.7 | -3 | 24 | 73.9 | 26.1 | -65.5 | 63.2 | 20.8 | ≤ 0 | -83.6 | -47.9 | 34.8 | 65.2 |
| CN(C)CCC[C@@]1(c2ccc(F)cc2)OCc2cc(C#N)ccc21 [escitalopram] (316 µM) | -31.5 | 0 | 0 | -1.78 | -0.69 | 0 | 16 | 1.26 | 50 | 50 | -24.6 | ≤ 0 | 0 | ≤ 0 | -35.5 | -39.8 | 0 | 25 |
| CN(C)CCCC1(c2ccc(F)cc2)OCc2cc(C#N)ccc21 (stereo unspecified) [citalopram hydrobromide] (100 µM) | -6.21 | 0 | 0 | 1.35 | 0 | 0 | 1.5 | 15.3 | 8.33 | 8.33 | -4.27 | ≤ 0 | 0 | 8.33 | -0.52 | -22.5 | 0 | 25 |
| CN(C)CCCN1c2ccccc2CCc2ccccc21 [imipramine] (3.16 µM) | -51.6 | 0 | 0 | 12.6 | 6.5 | 0 | 11 | 3.55 | 0 | 0 | -44.7 | ≤ 0 | 0 | ≤ 0 | -43.6 | -7.92 | 0 | ≤ 0 |
